According to US20110306639A1, “HYDROCARBYLIDENE NITROHYDROZINECARBOXIMIDAMIDES AND A METHOD FOR MAKING THE SAME, AS WELL AS THEIR USES AS AN INSECTICIDE” (priority 2008, published 2011):
Read-outs that look alike come from different tables or passages of the source.

Tests used:
[1] = system: myzus persicae; settings: in vivo
[2] = system: Helicoverpa armigera
[3] = system: asparagus caterpillar; settings: in vivo

Row | SMILES | mortality(%) myzus persicae (600 μg/mL) [1] [%] | mortality(%) Helicoverpa armigera (500 μg/mL) ([2]; 500 μg/mL, 48 hours) [%] | mortality(%) asparagus caterpillar (500 μg/mL) [3] [%] | mortality(%) Helicoverpa armigera (500 μg/mL) ([2]; in vivo) [%]
1 | CNC(=N[N+](=O)[O-])NN=CC(C)C [Compound 1, 2-isobutylidene-N-methyl-N′-nitrohydrozinecarboximidamide] | 4.7 | 40 | 40 | 
2 | CCNC(=N[N+](=O)[O-])NN=CC(C)C [Compound 2] | 53.6 | 60 | 50 | 
3 | CCCNC(=N[N+](=O)[O-])NN=CC(C)C [Compound 3] | 14.4 | 30 | 20 | 
4 | CCCCNC(=N[N+](=O)[O-])NN=CC(C)C [Compound 4] | 31.6 | 10 | 20 | 
5 | C=CCNC(=N[N+](=O)[O-])NN=CC(C)C [Compound 5] | 27.8 | 90 | 30 | 
6 | C#CCNC(=N[N+](=O)[O-])NN=CC(C)C [Compound 6] | 37.9 | 100 | 60 | 
7 | CC(C)C=NNC(=N[N+](=O)[O-])NCc1ccccc1 [Compound 7] | 18.4 | 40 | 50 | 
8 | CC(C)C=NNC(=N[N+](=O)[O-])NCc1ccc(Cl)nc1 [Compound 8] | 87.0 |  | 40 | 60
9 | CCC=NNC(=N[N+](=O)[O-])NCC [Compound 9] | 54.2 | 60 | 20 | 
10 | CCC=NNC(=N[N+](=O)[O-])NCCC [Compound 10] | 78.3 | 80 | 20 | 
11 | CCC=NNC(=N[N+](=O)[O-])NCCCC [Compound 11] | 1.5 | 50 | 50 | 
12 | C=CCNC(=N[N+](=O)[O-])NN=CCC [Compound 12] |  | 30 | 40 | 
13 | C#CCNC(=N[N+](=O)[O-])NN=CCC [Compound 13] | 5.0 | 50 | 0 | 
14 | CCC=NNC(=N[N+](=O)[O-])NCc1ccccc1 [Compound 14] | 18.8 | 40 | 30 | 
15 | CNC(=N[N+](=O)[O-])NN=CC=C(C)CCC=C(C)C [Compound 16] | 31.4 |  | 70 | 30
16 | CCNC(=N[N+](=O)[O-])NN=CC=C(C)CCC=C(C)C [Compound 17] | 19.8 |  | 40 | 40
17 | CCCNC(=N[N+](=O)[O-])NN=CC=C(C)CCC=C(C)C [Compound 18] |  |  | 60 | 50
18 | CCCCNC(=N[N+](=O)[O-])NN=CC=C(C)CCC=C(C)C [Compound 19] | 67.5 |  | 60 | 40
19 | C=CCNC(=N[N+](=O)[O-])NN=CC=C(C)CCC=C(C)C [Compound 20] | 5.2 |  | 50 | 0
20 | C#CCNC(=N[N+](=O)[O-])NN=CC=C(C)CCC=C(C)C [Compound 21] | 12.8 |  | 30 | 20
21 | CC(C)=CCCC(C)=CC=NNC(=N[N+](=O)[O-])NCc1ccccc1 [Compound 22] | 7.1 |  | 20 | 20
22 | CC(C)=CCCC(C)=CC=NNC(=N[N+](=O)[O-])NCc1ccc(Cl)nc1 [Compound 23] | 19.8 |  | 40 | 30

Row | SMILES | mortality(%) myzus persicae (600 μg/mL) [1] [%] | mortality(%) Helicoverpa armigera (500 μg/mL) ([2]; 500 μg/mL, 48 hours) [%] | mortality(%) asparagus caterpillar (500 μg/mL) [3] [%] | mortality(%) Helicoverpa armigera (500 μg/mL) ([2]; in vivo) [%]
23 | CCCC=NNC(=N[N+](=O)[O-])NCC [Compound 24] | 4.7 | 40 | 0 | 
24 | CCCC=NNC(=N[N+](=O)[O-])NCCC [Compound 25] |  | 50 | 10 | 
25 | CCCC=NNC(=N[N+](=O)[O-])NCCCC [Compound 26] | 65.3 | 20 | 60 | 
26 | C=CCNC(=N[N+](=O)[O-])NN=CCCC [Compound 27] | 65.1 | 30 | 40 | 
27 | C#CCNC(=N[N+](=O)[O-])NN=CCCC [Compound 28] | 11.4 | 60 | 70 | 
28 | CCCC=NNC(=N[N+](=O)[O-])NCc1ccccc1 [Compound 29] |  | 60 | 50 | 
29 | CCCC=NNC(=N[N+](=O)[O-])NCc1ccc(Cl)nc1 [Compound 30] | 80.7 |  | 40 | 40
30 | CC=CC=NNC(=N[N+](=O)[O-])NC [Compound 31] | 42.6 | 60 | 10 | 
31 | CC=CC=NNC(=N[N+](=O)[O-])NCC [Compound 32] | 48.0 | 0 | 0 | 
32 | CC=CC=NNC(=N[N+](=O)[O-])NCCC [Compound 33] | 19.5 | 70 | 70 | 
33 | CC=CC=NNC(=N[N+](=O)[O-])NCCCC [Compound 34] |  | 40 | 60 | 
34 | C=CCNC(=N[N+](=O)[O-])NN=CC=CC [Compound 35] | 56.7 | 20 | 60 | 
35 | C#CCNC(=N[N+](=O)[O-])NN=CC=CC [Compound 36] | 35.0 | 30 | 50 | 
36 | CC=CC=NNC(=N[N+](=O)[O-])NCc1ccccc1 [Compound 37] |  | 70 | 20 | 
37 | CC=CC=NNC(=N[N+](=O)[O-])NCc1ccc(Cl)nc1 [Compound 38] | 1.2 |  | 0 | 30
38 | C=CC=NNC(=N[N+](=O)[O-])NCC [Compound 39] |  | 20 | 40 | 
39 | C#CCNC(=N[N+](=O)[O-])NN=CC=C [Compound 43] |  | 40 | 20 | 
40 | CCCCCCC=NNC(=N[N+](=O)[O-])NCCCC [Compound 46] |  | 20 | 30 | 
41 | CCCNC(=N[N+](=O)[O-])NN=Cc1ccc(N(C)C)cc1 [Compound 70] |  |  | 80 | 40
42 | CN(C)c1ccc(C=NNC(=N[N+](=O)[O-])NCc2ccccc2)cc1 [Compound 71] |  |  | 90 | 30
43 | O=[N+]([O-])N=C(NCc1ccc(Cl)nc1)NN=Cc1ccc(Cl)cc1 [Compound 108] |  |  | 50 | 50
44 | COc1ccccc1C=NNC(=N[N+](=O)[O-])NCc1ccc(Cl)nc1 [Compound 109] |  |  | 90 | 40
